“And” between values parts separate entries of the source, which are not always exact repeats. Equal entries are not always repeated. “Also recorded” adds a separate entry of the source.
Assays:
[1] = molecular target: T1, F508del-CFTR in BHK cells (Homo sapiens, UniProt P13569, DEL508-508); test: FLIPR membrane potential (FMP) assay; assay type: cell-based, hamster; settings: for FMP assay signal (Fig5b) / FMP assay signal (Fig5c): individual replicates; for CFTR function (FMP assay): BHK cells, 24 h, 20 μM compound, genistein, forskolin
T1 construct: expressed in transfected cells; host or cells: baby hamster kidney (BHK) cells
T1 sequence (P13569 with tags, fused parts or gaps DEL508-508): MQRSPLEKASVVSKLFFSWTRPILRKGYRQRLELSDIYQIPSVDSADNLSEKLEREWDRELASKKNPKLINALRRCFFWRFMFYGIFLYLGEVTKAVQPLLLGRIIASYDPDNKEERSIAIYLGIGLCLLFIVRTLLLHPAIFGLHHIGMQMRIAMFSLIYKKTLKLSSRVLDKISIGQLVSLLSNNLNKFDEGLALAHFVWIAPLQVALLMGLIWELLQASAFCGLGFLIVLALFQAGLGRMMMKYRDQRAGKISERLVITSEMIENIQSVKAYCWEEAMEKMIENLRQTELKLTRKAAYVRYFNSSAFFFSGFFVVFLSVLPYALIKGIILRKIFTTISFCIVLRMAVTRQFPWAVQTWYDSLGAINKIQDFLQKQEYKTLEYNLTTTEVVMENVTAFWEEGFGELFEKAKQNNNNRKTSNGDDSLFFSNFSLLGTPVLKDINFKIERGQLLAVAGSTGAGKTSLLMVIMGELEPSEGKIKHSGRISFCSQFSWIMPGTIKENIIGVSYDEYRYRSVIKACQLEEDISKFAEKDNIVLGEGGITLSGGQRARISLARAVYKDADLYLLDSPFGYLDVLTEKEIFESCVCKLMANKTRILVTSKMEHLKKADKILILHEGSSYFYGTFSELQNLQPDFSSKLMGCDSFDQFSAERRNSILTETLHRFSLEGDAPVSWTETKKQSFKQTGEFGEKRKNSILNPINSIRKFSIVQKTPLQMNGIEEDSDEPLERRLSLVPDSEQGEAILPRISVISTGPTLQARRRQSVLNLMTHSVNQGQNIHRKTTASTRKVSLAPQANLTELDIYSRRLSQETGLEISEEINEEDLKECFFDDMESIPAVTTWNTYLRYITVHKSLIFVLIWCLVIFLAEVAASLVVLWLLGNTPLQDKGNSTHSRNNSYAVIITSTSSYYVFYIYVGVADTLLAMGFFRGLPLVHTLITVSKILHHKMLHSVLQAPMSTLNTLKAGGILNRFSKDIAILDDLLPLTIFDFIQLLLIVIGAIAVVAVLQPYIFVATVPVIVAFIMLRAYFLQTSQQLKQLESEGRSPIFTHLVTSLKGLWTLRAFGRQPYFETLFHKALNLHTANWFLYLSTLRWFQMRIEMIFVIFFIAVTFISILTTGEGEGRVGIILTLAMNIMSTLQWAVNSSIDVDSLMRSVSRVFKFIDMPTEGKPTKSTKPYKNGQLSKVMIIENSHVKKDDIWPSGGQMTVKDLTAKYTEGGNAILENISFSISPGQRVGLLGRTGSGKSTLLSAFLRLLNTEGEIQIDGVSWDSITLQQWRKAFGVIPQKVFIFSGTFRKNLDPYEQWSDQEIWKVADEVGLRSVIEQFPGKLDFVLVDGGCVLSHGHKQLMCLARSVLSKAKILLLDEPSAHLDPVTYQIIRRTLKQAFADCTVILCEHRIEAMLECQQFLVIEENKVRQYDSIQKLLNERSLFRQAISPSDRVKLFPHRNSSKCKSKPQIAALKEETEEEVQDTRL
Procedure: Twelve (12) validated hit compounds from the initial screening and focused validation library were tested for their effect on F508del-CFTR trafficking. Baby hamster kidney (BHK) cells expressing 3HA-tagged F508del-CFTR were treated for 24 h with 10 μM compound. After fixation of the cells, a combination of mouse monoclonal anti-HA antibody and anti-mouse IgG conjugated with FITC was used to detect F508del-CFTR that had trafficked to the plasma membrane as described previously. […] Additionally, a fluorescence imaging plate reader (FLIPR) Membrane Potential (FMP) assay was performed. This assay measures real-time membrane potential changes associated with ion channel activation and ion transporter proteins. F508del-CFTR expressing BHK cells were incubated for 24 h with 20 μM compound before treatment with the potentiator genistein, FMP dye, and activator forskolin. The fluorescence intensity is thus a measure for the function of the CFTR protein in the plasma membrane of these cells. The F508del-CFTR corrector VX-809 (lumacaftor) and the triple combination Trikafta® were used as positive controls in this assay. […] Another cellular assay was performed with the Ussing Chamber, which detects and quantifies transport of ions across epithelial tissue. F508del-CFTR expressing cystic fibrosis epithelial (CFBE) cells were treated for 18 h with 20 μM CY007424. After forskolin and genistein stimulation, the short-circuit current of the cells was measured.
Fig. 5 Cellular activity of macrocycles stabilizing the 14-3-3/CFTR PPI. a Surface expression of 3HA-tagged F508del-CFTR in BHK cells incubated for 24 h with 10 μM compound and treated with mouse monoclonal anti-HA antibody and anti-mouse IgG conjugated with FITC (n = 4 or n = 3 biological replicates, bars represent the mean). b, c FLIPR Membrane Potential (FMP) assay of F508del-CFTR expressing BHK cells treated for 24 h with the macrocycles (b, n = 6 biological replicates, bars represent the mean) or with CY007424 and/or VX-809 or Trikafta®, with and without CFTR inhibitor INH172 (c, n = 4 biological replicates, bars represent the mean). d Using chamber experiment of F508del-CFTR expressing CFBE cells treated for 18 h with CY007424, VX-809, or Trikafta® or in combinations. CFTR activity is assayed by measurement of short-circuit current of cells after stimulation by forskolin and the potentiator genistein (n = 3 or n = 6 biological replicates, bars represent the mean). Source data are provided as a Source Data file.
The FLuorescence Imaging Plate Reader (FLIPR) Membrane Potential (FMP) assay is based on the technique developed by Van Goor et al.[30] F508del-CFTR expressing baby hamster kidney (BHK) cells were incubated with the compounds for 24 h at 37 °C. The growth medium was removed from the cells by inverting the plate and FMP dye (Molecular Devices, Part #R8042) including the potentiator genistein (Sigma, G6649) was added back in 70 μl of low Cl^- containing buffer (160 mM NaGluconate, 4.5 mM KCl, 2 mM CaCl2, 1 mM MgCl2, 10 mM D-Glucose, 10 mM HEPES (pH7.4)). The plates were incubated for 5 min at RT before activation of CFTR in the plate reader (SynergyMX) with the addition of 14 µL of FMP dye in low Cl^- buffer containing 6x forskolin (Sigma, F6886) following a 2 min baseline read. Fluorescence intensity was monitored for 5 min following CFTR activation. Reported is the rate of fluorescence intensity change over time.

[2] = molecular target: T2, 14-3-3/full-length CFTR interaction (Homo sapiens, UniProt P13569, DEL508-508); test: Immunoprecipitation (pull-down) from HEK293 cells expressing F508del-CFTR; assay type: cell-based; settings: 24 h, 10 μM
T2 construct: expressed in transfected cells; host or cells: HEK 293 cells expressing F508del-CFTR (Carlile et al. 2015)
T2 sequence (P13569 with tags, fused parts or gaps DEL508-508): as above
Procedure: Background polarization was subtracted from all values, n = 3 technical replicates. g Immunoprecipitation study to show the effect of CY007424 on the interaction between of CFTR and 14-3-3 proteins. CFTR and separately 14-3-3 immunoprecipitation from HEK293 cells expressing F508del-CFTR after 24 h of CY007424 (10μM) (424) or vehicle alone (CON). LYS: cellular lysate prior to preclear, SUP: supernatant after specific bead incubation, PC: second preclear, LW: last wash after the immunoprecipitation IP are the specific antibody beads. IP, upper blot: probed with CFTR AB, lower blot: probed with 14-3-3 AB. Source data are provided as a Source Data file.
CFTR monoclonal-mAb (M3A7, ab270238 abcam) and 14-3-3 monoclonal-Rbt-Ab (Y62, ab32560 abcam) were separately covalently linked to Protein A–Sepharose (Pharmacia, NJ, U.S.A.) by cross-linking with dimethyl pimelimidate (DMP) utilizing standard procedures.
Briefly, Protein A–Sepharose beads were washed two times in 0.2 M sodium borate, pH 9.0 for 5 min each. The beads were then mixed with antibody (for 1 mL of beads use 0.5 mg of antibody). These were placed on a rotator and mixed continuously for 2 h at room temperature (RT). The beads were washed with sodium borate twice, followed by one wash with 0.2 M triethanolamine, pH 8.5. An equal volume of 40 mM DMP in 0.2 M triethanolamine was added. The mixture was mixed for 1 h at RT and the beads then collected. The beads were incubated in 0.2 M ethanolamine, pH 8.2 for 5 min at RT. Beads were washed with the sodium borate solution, and stored at 4 °C until use. Beads were rinsed in lysis buffer before use.
Once HEK 293 cells expressing F508del-CFTR (cells earlier described by Carlile et al. 2015)[29] were treated, they were harvested and immunoprecipitated as follows. Cells were washed twice in sterile TBS, trypsin-treated and transferred to a Falcon tube with media and sera and centrifuged at 800 g at RT for 5 min. Pellets were washed twice in TBS prewarmed to 37 °C and centrifuged at 800–1000 g for 5 min at 4 °C. […]

SMILES | FMP assay signal (Fig5b) [1] | CFTR function (FMP assay) [1] | stabilizing effect on the 14-3-3/CFTR interaction in cells (pull-down) [2] | FMP assay signal (Fig5c) ([1]; Compound alone) | FMP assay signal (Fig5c) ([1]; With CFTR-inh172)
N=C(N)NCCCC1NC(=O)C(CCC(N)=O)NC(=O)C(CCCNC(=N)N)NC(=O)C2CCCN2Cc2cccc(c2)-c2ccccc2CNC1=O (stereo not drawn) [CY007455] | 35.786 and 28.786 and 56.25 and 44.357 and 64.929 and 56.893 |  |  |  | 
CN1CC(=O)NC(CCCNC(=N)N)C(=O)NC(CCC(N)=O)C(=O)NC(CCCNC(=N)N)C(=O)NCc2ccccc2-c2cccc(c2)C1 (stereo not drawn) [CY007491] | 58.5 and 35.75 and 49.393 and 59.036 and 29.929 and 21.679 | inactive | did not show a stabilizing effect; also recorded: did not enhance binding of 14-3-3 |  | 
NCCCCC1NCc2ccccc2Sc2ccccc2CNC(=O)C(Cc2cccc(Cl)c2)NC(=O)C(Cc2ccc(O)cc2)NC1=O (stereo not drawn) [CY007288] | 56.536 and 49 and 51.321 and 53.964 and 53 and 52.964 |  |  |  | 
N=C(N)NCCCC1NCc2ccccc2Sc2ccccc2CNC(=O)C(Cc2ccc(O)cc2)NC(=O)C(CCCN)NC1=O (stereo not drawn) [CY007424] | 405.536 and 378.214 and 384.321 and 349.393 and 433.679 and 385.071 | clear corrector function | stabilizing effect; also recorded: increased CFTR binding to 14-3-3 | 416.179 and 423.464 and 390.429 and 379.429 | 23.036 and 3.107 and 4.393 and -13.071
N=C(N)NCCCC1NC(=O)C(CCC(N)=O)NC(=O)C(CCCNC(=N)N)NC(=O)C2CCCN2Cc2cccc(c2)-c2ccccc2CNC1=O (stereo not drawn) [CY007458] | 121.393 and 152.286 and 131.821 and 116.107 and 106.464 and 116.643 |  |  |  | 
N=C(N)NCCCC1NC(=O)C(CCC(N)=O)NC(=O)C(CCCNC(=N)N)NC(=O)C2Cc3ccccc3CN2Cc2cccc(c2)-c2ccccc2CNC1=O (stereo not drawn) [CY007493] | 74.143 and 78.429 and 43.607 and 72 and 65.679 and 76.179 |  |  |  | 
N=C(N)NCCCC1NC(=O)C(CCCCN)NCc2ccccc2Sc2ccccc2CNC(=O)C(Cc2ccc(O)cc2)NC1=O (stereo not drawn) [CY001951] | 112.821 and 82.214 and 93.607 and 85.25 and 102.571 and 92.764 |  |  |  | 
NCCCC1NCc2ccccc2Sc2ccccc2CNC(=O)C(Cc2c[nH]c3ccccc23)NC(=O)C(Cc2ccccc2)NC1=O (stereo not drawn) [CY007345] | 99.75 and 93 and 100.071 and 96.107 and 84.214 and 89.179 |  |  |  | 
C=CC(C)(C)OC[C@H]1O[C@H](O[C@@H]2C3=C([C@H](C)COC(C)=O)C[C@H](O)[C@]3(C)/C=C3/[C@@H](COC)CC[C@H]3[C@@H](C)[C@H]2O)[C@H](O)[C@@H](OC(C)=O)[C@@H]1O [FC-A, fusicoccin A, reference compound] | 224.714 and 247.893 and 215.429 and 224.357 and 209.61 and 238.08 |  |  | 170.429 and 204.929 and 173.75 and 189.679 | 23.571 and 18.107 and 23.429 and 27.536
N=C(N)NCCCC1NC(=O)C(CCC(N)=O)NC(=O)C(CCCNC(=N)N)NC(=O)C2CCCN2Cc2ccccc2Sc2ccccc2CNC1=O (stereo not drawn) [CY007502] | 13.036 and 27.929 and 39.536 and 44.036 and 44.893 and 22.781 |  |  |  | 
CC1NC(=O)C(CCCNC(=N)N)NC(=O)C2CCCN2Cc2cccc(c2)-c2ccccc2CNC(=O)C(CCCNC(=N)N)NC1=O (stereo not drawn) [CY007476] | 153.964 and 148.571 and 156.714 and 190.464 and 184.357 and 154.25 | inactive | did not show a stabilizing effect; also recorded: did not enhance binding of 14-3-3 |  | 

Reference: PMC9226124, “Macrocycle-stabilization of its interaction with 14-3-3 increases plasma membrane localization and activity of CFTR” (Nature Communications, 2022)
